Values quoted from earlier work in PubChem BioAssay AID1259409 (Chemical Carcinogenesis Research Information System (CCRIS), 2018).
Values joined by “and” are separate entries in the source; they are usually repeats but may differ in a detail not shown here. Equal values may be shown once.

Test system: rodent chemically induced tumor inhibition, incidence and multiplicity
Assay: CCRIS tumor inhibitor studies

CC(O)CCC(=O)c1ccccc1 (stereo not given)
tumour outcome (control, treated, inhibition, significance) (Carcinogen: 4-(METHYLNITROSAMINO)-1-(3-PYRIDYL)-1-BUTANONE, 64091-91-4, Dose [Inhibitor]: 0, 25 UMOL IN 0.1 ML CORN OIL ONCE 2 HR PRIOR TO CARCINOGEN DOSE (STUDY DURATION: 16 WK), Route [Inhibitor]: GAVAGE, Species: MOUSE, Strain/Sex: STRAIN-A/FEMALE, Target Tissue: Type of Lesion: LUNG: ADENOMA, Dose [Carcinogen]: 10 UMOL IN 0.1 ML SALINE ONCE, Promoter: NONE USED): 100%, 95%, 5%, not significant
tumour outcome (control, treated, inhibition, significance) (Carcinogen: 4-(METHYLNITROSAMINO)-1-(3-PYRIDYL)-1-BUTANONE, 64091-91-4, Dose [Inhibitor]: 0, 25 UMOL IN 0.1 ML CORN OIL ONCE 2 HR PRIOR TO CARCINOGEN DOSE (STUDY DURATION: 16 WK), Route [Inhibitor]: GAVAGE, Species: MOUSE, Strain/Sex: STRAIN-A/FEMALE, Target Tissue: Type of Lesion: LUNG: TUMOR, Dose [Carcinogen]: 10 UMOL IN 0.1 ML SALINE ONCE, Promoter: NONE USED): 100%, 100%, 0%, not significant

CC1=C(/C=C/C(C)=C/C=C/C(C)=C\C(=O)Nc2ccc(O)cc2)C(C)(C)CCC1
tumour outcome (control, treated, inhibition, significance) (Carcinogen: N-BUTYL-N-(4-HYDROXYBUTYL)NITROSAMINE, 3817-11-6, Dose [Inhibitor]: 1.5 MMOL/KG DIET DAILY FOR 153 D STARTING ONE WK AFTER THE FINAL CARCINOGEN DOSE (STUDY DURATION: 210 D), Route [Inhibitor]: ORAL, Species: MOUSE, Strain/Sex: BDF/MALE, Target Tissue: Type of Lesion: URINARY BLADDER: TRANSITIONAL CELL CARCINOMA, Dose [Carcinogen]: 7.5 MG 1/WK FOR 8 WK, Promoter: NONE USED): 35/99 (35%), 21/99 (21%), 40%, p<0.05
tumour outcome (control, treated, inhibition, significance) (Carcinogen: N-BUTYL-N-(4-HYDROXYBUTYL)NITROSAMINE, 3817-11-6, Dose [Inhibitor]: 1.5 MMOL/KG/D IN DIET FOR 153 D STARTING 1 WK POST CARCINOGEN TREATMENT (STUDY DURATION: 210 D), Route [Inhibitor]: ORAL, Species: MOUSE, Strain/Sex: BDF/MALE, Target Tissue: Type of Lesion: URINARY BLADDER: TRANSITIONAL CELL CARCINOMA, Dose [Carcinogen]: 7.5 MG 1/WK FOR 8 WK, Promoter: NONE USED): 35/99 (35%), 21/99 (21%), 40%, p<0.05

Cc1cc(C)c(C)c(O)c1C
tumour outcome (control, treated, inhibition, significance) (Carcinogen: BENZO[A]PYRENE, 50-32-8, Dose [Inhibitor]: 0.03 MMOL/G OF DIET DAILY STARTING 7 D BEFORE AND CONTINUING THROUGH 3 D AFTER CARCINOGEN TREATMENT FOLLOWED BY OBSERVAT, Route [Inhibitor]: ORAL, Species: MOUSE, Strain/Sex: ICR/FEMALE, Target Tissue: Type of Lesion: FORESTOMACH: NEOPLASM, Dose [Carcinogen]: 1 MG IN 0.2 ML CORN OIL 2/WK FOR 4 WK, Promoter: NONE USED): 97%, 88%, 9%, not significant and 94%, 89%, 5%, not significant

Oc1cc(O)c2c(c1)O[C@H](c1ccc(O)c(O)c1)[C@H](O)C2
tumour outcome (control, treated, inhibition, significance) (Carcinogen: 3-METHYLCHOLANTHRENE, 56-49-5, Dose [Inhibitor]: 0, 2 MG IN 0.1 ML STERILE SALINE 1/D FOR 5 CONSECUTIVE D BEGINNING 30 D POST CARCINOGEN TREATMENT (STUDY DURATION: 20 WK, Route [Inhibitor]: GAVAGE, Species: MOUSE, Strain/Sex: SWISS/MALE, Target Tissue: Type of Lesion: INJECTION SITE: SARCOMA, Dose [Carcinogen]: 745 NMOL IN 0.1 ML DMSO 1/D FOR 2 CONSECUTIVE D, Promoter: NONE USED): 100%, 33%, 67%, p<0.01
tumour outcome (control, treated, inhibition, significance) (Carcinogen: 7,12-DIMETHYLBENZ[A]ANTHRACENE, 57-97-6, Dose [Inhibitor]: 0, 2 MG IN 0.1 ML DMSO 2/WK FOR 6 WK ADMINISTERED 30 MIN POST EACH PROMOTER DOSE (STUDY DURATION: 12 WK), Route [Inhibitor]: DERMAL, Species: MOUSE, Strain/Sex: SWISS/MALE, Target Tissue: Type of Lesion: SKIN: PAPILLOMA, Dose [Carcinogen]: 450 NMOL IN 0.1 ML DMSO ONCE, Promoter: CROTON OIL, 8001-28-3): 17/30 (57%), 14/30 (47%), 18%, not significant

C[N+](C)(C)CC(=O)O
tumour outcome (control, treated, inhibition, significance) (Carcinogen: ETHIONINE, 13073-35-3, Dose [Inhibitor]: 5.2 MMOL/100 G DIET DAILY FOR 8 MO ADMINISTERED SIMULTANEOUSLY WITH CARCINOGEN FOLLOWED BY 4 MO ON BASAL DIET (STUDY DUR, Route [Inhibitor]: ORAL, Species: RAT, Strain/Sex: WISTAR/MALE, Target Tissue: Type of Lesion: LIVER: CARCINOMA, Dose [Carcinogen]: 0.25% OF DIET DAILY FOR 8 MO, Promoter: NONE USED): 8/8 (100%), 1/10 (10%), 90%, not calculated

O=c1c2ccccc2[se]n1-c1ccccc1
tumour outcome (control, treated, inhibition, significance) (Carcinogen: 17BETA-ESTRADIOL, 50-28-2, Dose [Inhibitor]: 0, 0.2% IN DIET BEGINNING 5 D POST CARCINOGEN DOSE (STUDY DURATION: 7.5 MO), Route [Inhibitor]: ORAL, Species: HAMSTER, Strain/Sex: SYRIAN/MALE, Target Tissue: Type of Lesion: KIDNEY: TUMOR, Dose [Carcinogen]: 25 MG PELLET REPLACED WITH A SECOND PELLET AFTER 4 MO, Promoter: NONE USED): 13/13 (100%), 8/11 (73%), 27%, p<0.05

CC(=O)[C@H]1CC[C@H]2[C@@H]3CCC4=CC(=O)CC[C@]4(C)[C@H]3CC[C@]12C
tumour outcome (control, treated, inhibition, significance) (Carcinogen: 7,12-DIMETHYLBENZ[A]ANTHRACENE, 57-97-6, Dose [Inhibitor]: 0, 1 MG/100 G BW 3/WK FOR 150 D BEGINNING POST CARCINOGEN TREATMENT (STUDY DURATION: 150 D), Route [Inhibitor]: SUBCUTANEOUS, Species: RAT, Strain/Sex: WISTAR/FEMALE, Target Tissue: Type of Lesion: MAMMARY GLAND: ADENOCARCINOMA, Dose [Carcinogen]: 4 MG IN 0.1 ML OF SESAME OIL INJECTED ONCE INTO THE EXPOSED MAMMARY TISSUE OF HYPERPROLACTINEMIC RATS ON DAY 73 OF AGE, Promoter: NONE USED): 8/11 (73%), 5/11 (45%), 38%, p<0.05
tumour outcome (control, treated, inhibition, significance) (Carcinogen: N-METHYL-N-NITROSOUREA, 684-93-5, Dose [Inhibitor]: 0, 2560 MG/KG IN DIET FOR THE DURATION OF STUDY BEGINNING 7 D PRIOR TO CARCINOGEN DOSE (STUDY DURATION: 187 D), Route [Inhibitor]: ORAL, Species: RAT, Strain/Sex: SPRAGUE-DAWLEY/FEMALE, Target Tissue: Type of Lesion: MAMMARY GLAND: TUMOR, Dose [Carcinogen]: 50 MG/KG BW ONCE, Promoter: NONE USED): 100%, 95%, 5%, not significant

C/C=C/C1=CC2=CC3=C(C(=O)CCCCCCC)C(=O)O[C@@]3(C)C(=O)C2=CO1
tumour outcome (control, treated, inhibition, significance) (Carcinogen: 7,12-DIMETHYLBENZ[A]ANTHRACENE, 57-97-6, Dose [Inhibitor]: 0, 2 UMOL 2/WK FOR 18 WK APPLIED 30 MIN PRIOR TO EACH PROMOTER DOSE BEGINNING 1 WK POST CARCINOGEN DOSE (STUDY DURATION:, Route [Inhibitor]: DERMAL, Species: MOUSE, Strain/Sex: ICR/FEMALE, Target Tissue: Type of Lesion: SKIN: PAPILLOMA, Dose [Carcinogen]: 50 UG ONCE, Promoter: 12-O-TETRADECANOYLPHORBOL-13-ACETATE, 16561-29-8): 100%, 7%, 93%, not calculated

C=C1CC[C@H](O)C/C1=C/C=C1\CCC[C@]2(C)[C@@H]([C@H](C)CCCC(C)C)CC[C@@H]12
tumour outcome (control, treated, inhibition, significance) (Carcinogen: N-BUTYL-N-(4-HYDROXYBUTYL)NITROSAMINE, 3817-11-6, Dose [Inhibitor]: 0.002% DIET DAILY FOR 7 WK FOLLOWED BY 1 WK OF NO TREATMENT THEN 5 WK OF 0.001% DIET DAILY AND NO FURTHER TREATMENT THRO, Route [Inhibitor]: ORAL, Species: RAT, Strain/Sex: F344/MALE, Target Tissue: Type of Lesion: URINARY BLADDER: PAPILLOMA, Dose [Carcinogen]: 0.01% IN DRINKING WATER FOR 4 WK, Promoter: NONE USED): 33%, 41%, -24%, not significant
tumour outcome (control, treated, inhibition, significance) (Carcinogen: N-METHYL-N-NITROSOUREA, 684-93-5, Dose [Inhibitor]: 0, 3.3 UG/KG OF DIET FOR 147 D (STUDY DURATION: 150 D), Route [Inhibitor]: ORAL, Species: RAT, Strain/Sex: SPRAGUE-DAWLEY/FEMALE, Target Tissue: Type of Lesion: MAMMARY GLAND: ADENOCARCINOMA, Dose [Carcinogen]: 50 MG/KG BW ONCE 3 D BEFORE INITIAL INHIBITOR DOSE, Promoter: NONE USED): 25/25 (100%), 25/25 (100%), 0%, not significant
tumour outcome (control, treated, inhibition, significance) (Carcinogen: N-METHYL-N-NITROSOUREA, 684-93-5, Dose [Inhibitor]: 0, 10 UG/KG OF DIET FOR 147 D (STUDY DURATION: 150 D), Route [Inhibitor]: ORAL, Species: RAT, Strain/Sex: SPRAGUE-DAWLEY/FEMALE, Target Tissue: Type of Lesion: MAMMARY GLAND: ADENOCARCINOMA, Dose [Carcinogen]: 50 MG/KG BW ONCE 3 D BEFORE INITIAL INHIBITOR DOSE, Promoter: NONE USED): 25/25 (100%), 25/25 (100%), 0%, not significant
